Experimental data as given in US6632809B2, “Gyrase inhibitors and uses thereof” (Vertex Pharmaceuticals Incorporated, priority 2000, dated 2003).
Converted amounts (≈) assume the structure as drawn.

Legend:
[1] = tested on: test bacteria; test: Susceptibility Testing in Liquid Media (MIC assay); format: cell-based; settings: broth dilution, MHB, 35° C. overnight (16 to 20 hr), organism not given; for MIC: read-out: MIC (minimal inhibitory concentration) activity level
Procedure: Susceptibility Testing in Liquid Media
Compounds of this invention were also tested for antimicrobial activity by susceptibility testing in liquid media. Such assays were performed within the guidelines of the latest NCCLS document governing such practices: “M7-A5 Methods for dilution Antimicrobial Susceptibility Tests for Bacteria that Grow Aerobically; Approved Standard—Fifth Edition (2000)”. Other publications such as “Antibiotics in Laboratory Medicine” (Edited by V. Lorian, Publishers Williams and Wilkins, 1996) provide essential practical techniques in laboratory antibiotic testing. Essentially, several discrete bacterial colonies (3 to 7) from a freshly streaked plate were transferred to an appropriate rich broth medium such as MHB, supplemented where appropriate for the more fastidious organisms. This was grown overnight to high density followed by a 1 or 2-thousand-fold dilution to give an inoculation density of between 5×10^5 and 5×10^6 CFU per mL. Alternatively, the freshly picked colonies can be incubated at 37° C. for about 4 to 8 hrs until the culture equals or exceeds a turbidity of a 0.5 McFarland standard (approximately 1.5×10^8 cells per mL) and diluted to give the same CFU per mL as above. In a more convenient method, the inoculum was prepared using a commercially available mechanical device (the BBL PROMPT System) that involves touching five colonies directly with a wand, containing crosshatch grooves at its bottom, followed by suspension of the bacteria in an appropriate volume of saline. Dilution to the appropriate inoculum cell density was made from this cell suspension. The broth used for testing consists of MHB supplemented with 50 mg per L of Ca^2+ and 25 mg per L of Mg^2+. Standard dilution panels of control antibiotics were made and stored as in the NCCLS standard M7-A5, the dilution range typically being in the 128 μg per mL to 0.015 μg per mL (by 2-fold serial dilution). The test compounds were dissolved and diluted fresh for experimentation on the same day; the same or similar ranges of concentration as above being used. The test compounds and controls were dispensed into a multiwell plate and test bacteria added such that the final inoculation was approximately 5×10^4 CFU per well and the final volume was 100 μL. The plates were incubated at 35° C. overnight (16 to 20 hr) and checked by eye for turbidity or quantitated with a multiwell plate reader. […] Such determinations were also compared to the appropriate tables contained in the above two publications to ensure that the range of antibacterial activity is within the acceptable range for this standardized assay.
The compound numbers correspond to the compound numbers in Table 1.

[2] = target: DNA gyrase (374 kDa Gyr A2B2 subunit from Staphylococcus aureus) (Staphylococcus aureus, UniProt P0A0K8); test: Gyrase ATPase Assay; format: biochemical; settings: 10 μM concentration; ATPase assay at 30° C., 0.9 mM ATP; average of duplicate values; read-out: Gyrase Inhibitory Activity (percent inhibition)
Procedure: The ATP hydrolysis activity of DNA gyrase was measure by coupling the production of ADP through pyruvate kinase/lactate dehydrogenase to the oxidation of NADH. This method has been described previously (Tamura and Gellert, 1990, J. Biol. Chem., 265, 21342).
ATPase assays are carried out at 30° C. in buffered solutions containing 100 mM TRIS pH 7.6, 1.5 mM MgCl2, 50 mM KCl. The coupling system contains (final concentrations) 2.5 mM phosphoenol pyruvate, 200 μM nicotinamide adenine dinucleotide (NADH), 1 mM DTT, […], and 10 ug/ml lactate dehydrogenase. 40 nanomolar enzyme (374 kDa Gyr A2B2 subunit from Staphylococcus aureus) and a DMSO solution of the inhibitor to a final concentration of 4% are added and the reaction mixture is allowed to incubate for 10 minutes at 30° C. The reaction is then started by the addition of ATP to a final concentration of 0.9 mM and the rate of NADH disappearance at 340 nanometers is measured over the course of 10 minutes. The percent inhibition values are determined from rate versus concentration profiles and are reported as the average of duplicate values.
The compound numbers correspond to the compound numbers in Table 1. Compounds having an activity designated as “A” provided a percent inhibition value below 50 percent; compounds having an activity designated as “B” provided a percent inhibition value between 50 and 75 percent; and compounds having an activity designated as “C” provided a percent inhibition value greater than 75 percent.

DNA gyrase (374 kDa Gyr A2B2 subunit from Staphylococcus aureus), sequence (P0A0K8 whole entry): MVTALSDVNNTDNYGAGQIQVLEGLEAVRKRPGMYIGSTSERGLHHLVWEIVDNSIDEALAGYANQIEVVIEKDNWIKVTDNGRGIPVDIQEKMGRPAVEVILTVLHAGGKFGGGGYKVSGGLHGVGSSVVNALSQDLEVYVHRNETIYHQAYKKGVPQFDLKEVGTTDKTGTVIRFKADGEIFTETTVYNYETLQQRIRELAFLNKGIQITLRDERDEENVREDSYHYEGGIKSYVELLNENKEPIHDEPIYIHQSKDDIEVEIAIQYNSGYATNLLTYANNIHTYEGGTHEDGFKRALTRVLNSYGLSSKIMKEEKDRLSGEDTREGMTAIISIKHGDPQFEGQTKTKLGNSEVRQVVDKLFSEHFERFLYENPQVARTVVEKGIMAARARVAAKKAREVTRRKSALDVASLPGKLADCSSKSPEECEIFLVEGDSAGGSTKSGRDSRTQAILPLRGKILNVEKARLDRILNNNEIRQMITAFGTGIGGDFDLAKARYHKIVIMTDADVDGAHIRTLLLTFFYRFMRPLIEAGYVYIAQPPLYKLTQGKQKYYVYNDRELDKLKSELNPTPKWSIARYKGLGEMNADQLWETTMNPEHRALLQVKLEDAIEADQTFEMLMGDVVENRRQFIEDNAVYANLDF
DNA gyrase (374 kDa Gyr A2B2 subunit from Staphylococcus aureus), sequence (P20831 whole entry, further chain): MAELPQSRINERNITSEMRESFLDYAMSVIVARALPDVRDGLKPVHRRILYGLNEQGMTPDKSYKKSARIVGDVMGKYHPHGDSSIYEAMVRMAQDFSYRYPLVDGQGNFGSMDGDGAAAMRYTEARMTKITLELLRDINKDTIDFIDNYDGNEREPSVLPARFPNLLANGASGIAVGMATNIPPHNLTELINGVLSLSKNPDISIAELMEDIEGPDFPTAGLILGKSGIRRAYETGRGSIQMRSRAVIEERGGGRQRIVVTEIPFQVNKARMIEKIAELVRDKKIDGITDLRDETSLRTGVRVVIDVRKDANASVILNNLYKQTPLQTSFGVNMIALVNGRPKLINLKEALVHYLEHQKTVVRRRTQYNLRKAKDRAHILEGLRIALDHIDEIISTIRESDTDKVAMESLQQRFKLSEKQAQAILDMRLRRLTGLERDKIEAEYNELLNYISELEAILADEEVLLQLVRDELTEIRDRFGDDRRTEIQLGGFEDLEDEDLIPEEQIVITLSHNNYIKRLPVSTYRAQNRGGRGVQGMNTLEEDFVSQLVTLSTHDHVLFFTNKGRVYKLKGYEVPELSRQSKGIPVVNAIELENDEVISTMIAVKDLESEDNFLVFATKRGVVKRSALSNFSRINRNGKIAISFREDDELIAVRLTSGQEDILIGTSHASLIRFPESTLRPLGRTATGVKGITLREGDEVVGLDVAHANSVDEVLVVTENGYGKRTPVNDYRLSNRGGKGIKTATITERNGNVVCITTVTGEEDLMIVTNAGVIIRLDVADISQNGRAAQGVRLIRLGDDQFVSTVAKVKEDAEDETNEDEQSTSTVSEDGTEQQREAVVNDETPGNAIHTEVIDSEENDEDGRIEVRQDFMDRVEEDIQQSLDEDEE

## CSc1ncc(-c2ccc3[nH]c(NC(=O)NC(C)C)nc3c2)cn1 [Ia-116]
[1]
  MIC: > 40 µg/mL
[2]
  inhibition at 10 µM: 50 to 75%

## CSc1ncc(-c2ccc3[nH]c(NC(=O)NC4CCCC4)nc3c2)cn1 [Ia-117]
[1]
  MIC: > 40 µg/mL
[2]
  inhibition at 10 µM: < 50%

## CCNC(=O)Nc1nc2cc(-c3cccnc3)ccc2[nH]1 [Ia-118]
[1]
  MIC: < 10 µg/mL
[2]
  inhibition at 10 µM: > 75%

## CCCNC(=O)Nc1nc2cc(-c3cccnc3)ccc2[nH]1 [Ia-119]
[1]
  MIC: > 40 µg/mL
[2]
  inhibition at 10 µM: > 75%

## CC(C)NC(=O)Nc1nc2cc(-c3cccnc3)ccc2[nH]1 [Ia-120]
[1]
  MIC: > 40 µg/mL
[2]
  inhibition at 10 µM: 50 to 75%

## O=C(Nc1nc2cc(-c3cccnc3)ccc2[nH]1)NC1CCCC1 [Ia-121]
[1]
  MIC: > 40 µg/mL
[2]
  inhibition at 10 µM: < 50%

## CCOC(=O)Nc1nc2cc(-c3cncc(NC(C)=O)c3)ccc2[nH]1 [Ia-122]
[1]
  MIC: > 40 µg/mL
[2]
  inhibition at 10 µM: > 75%

## CCNC(=O)Nc1nc2cc(-c3cccnc3)c(C)cc2[nH]1 [Ia-133]
[1]
  MIC: < 10 µg/mL
[2]
  inhibition at 10 µM: > 75%

## CCNC(=O)Nc1nc2cc(-c3ccc(CN)cc3)ccc2[nH]1 [Ia-137]
[1]
  MIC: > 40 µg/mL
[2]
  inhibition at 10 µM: > 75%

## CCNC(=O)Nc1nc2cc(-c3ccc(CNS(C)(=O)=O)cc3)ccc2[nH]1 [Ia-138]
[1]
  MIC: > 40 µg/mL
[2]
  inhibition at 10 µM: > 75%

## CCNC(=O)Nc1nc2cc(-c3ccc(CNC(C)=O)cc3)ccc2[nH]1 [Ia-139]
[1]
  MIC: > 40 µg/mL
[2]
  inhibition at 10 µM: > 75%

## CCNC(=O)Nc1nc2cc(-c3cnc(OC(C)COC)nc3)c(OC)cc2[nH]1 (centres unmarked) [Ia-140]
[1]
  MIC: < 10 µg/mL
[2]
  inhibition at 10 µM: > 75%

## CCNC(=O)Nc1nc2cc(-c3cnc(NC(C)COC)nc3)cc(C)c2[nH]1 (centres unmarked) [Ia-141]
[1]
  MIC: < 10 µg/mL
[2]
  inhibition at 10 µM: > 75%

## CCNC(=O)Nc1nc2cc(-c3cccnc3)c(C)c(C)c2[nH]1 [Ia-142]
[1]
  MIC: < 10 µg/mL
[2]
  inhibition at 10 µM: > 75%

## CCNC(=O)Nc1nc2cc(-c3ccc(CN)nc3)ccc2[nH]1 [Ia-144]
[1]
  MIC: 10 to 40 µg/mL (≈ 32.2 to 129 µM)
[2]
  inhibition at 10 µM: > 75%

## CCNC(=O)Nc1nc2cc(-c3ccc(CNC(C)=O)nc3)ccc2[nH]1 [Ia-145]
[1]
  MIC: 10 to 40 µg/mL (≈ 28.4 to 114 µM)
[2]
  inhibition at 10 µM: > 75%

## CCNC(=O)Nc1nc2cc(-c3cnc(NC(C)COC)nc3)c(OC)cc2[nH]1 (centres unmarked) [Ia-146]
[1]
  MIC: < 10 µg/mL
[2]
  inhibition at 10 µM: > 75%

## CCNC(=O)Nc1nc2cc(-c3cccnc3)c(OC)c(C)c2[nH]1 [Ia-147]
[1]
  MIC: > 40 µg/mL
[2]
  inhibition at 10 µM: 50 to 75%

## CCNC(=O)Nc1nc2cc(-c3ccc(CNC(=O)OC(C)(C)C)nc3)ccc2[nH]1 [Ia-148]
[1]
  MIC: 10 to 40 µg/mL (≈ 24.4 to 97.4 µM)
[2]
  inhibition at 10 µM: > 75%

## CCNC(=O)Nc1nc2cc(-c3cccnc3)c(OCCOC)c(C)c2[nH]1 [Ia-149]
[1]
  MIC: > 40 µg/mL
[2]
  inhibition at 10 µM: > 75%

## CCNC(=O)Nc1nc2cc(-c3nnc(C)o3)ccc2[nH]1 [Ia-150]
[1]
  MIC: > 40 µg/mL
[2]
  inhibition at 10 µM: 50 to 75%

## CCNC(=O)Nc1nc2cc(-c3nnco3)ccc2[nH]1 [Ia-151]
[1]
  MIC: > 40 µg/mL
[2]
  inhibition at 10 µM: > 75%

## CCNC(=O)Nc1nc2cc(-c3cccc(F)c3F)ccc2[nH]1 [Ia-152]
[1]
  MIC: 10 to 40 µg/mL (≈ 31.6 to 126 µM)
[2]
  inhibition at 10 µM: > 75%

## CCNC(=O)Nc1nc2cc(-c3cccnc3)c3c(c2[nH]1)OC(F)(F)O3 [Ia-153]
[1]
  MIC: > 40 µg/mL
[2]
  inhibition at 10 µM: 50 to 75%

## CCNC(=O)Nc1nc2cc(-c3ccc(CNS(C)(=O)=O)nc3)ccc2[nH]1 [Ia-154]
[1]
  MIC: > 40 µg/mL
[2]
  inhibition at 10 µM: > 75%

## CCNC(=O)Nc1nc2cc(-n3cnc(C(=O)OC)c3)ccc2[nH]1 [Ia-156, 1-[2-(3-Ethyl-ureido)-3H-benzoimidazol-5-yl]-1H-imiazole-4-carboxylic acid methyl ester]
[1]
  MIC: 10 to 40 µg/mL (≈ 30.5 to 122 µM)
[2]
  inhibition at 10 µM: > 75%

## CCNC(=O)Nc1nc2cc(-n3cnc(C(=O)O)c3)ccc2[nH]1 [Ia-157, 1-[2-(3-Ethyl-ureido)-3H-benzoimidazol-5-yl]-1H-imidazole-4-carboxylic acid]
[1]
  MIC: > 40 µg/mL
[2]
  inhibition at 10 µM: > 75%

## CCNC(=O)Nc1nc2cc(-c3cccc(=O)[nH]3)ccc2[nH]1 [Ia-158]
[1]
  MIC: > 40 µg/mL
[2]
  inhibition at 10 µM: > 75%

## CC(C)CNC(=O)Nc1nc2cc(-c3ccc(F)nc3)ccc2[nH]1 [Ia-159]
[1]
  MIC: > 40 µg/mL
[2]
  inhibition at 10 µM: < 50%

## CCNC(=O)Nc1nc2cc(-n3ccc(=O)c(OCc4ccccc4)c3C)ccc2[nH]1 [Ia-160]
[1]
  MIC: > 40 µg/mL
[2]
  inhibition at 10 µM: > 75%

## CCNC(=O)Nc1nc2cc(-n3ccc(=O)c(O)c3C)ccc2[nH]1 [Ia-161]
[1]
  MIC: > 40 µg/mL
[2]
  inhibition at 10 µM: < 50%

## CCNC(=O)Nc1nc2cc(-n3cc(C(=O)O)cn3)ccc2[nH]1 [Ia-162]
[1]
  MIC: > 40 µg/mL
[2]
  inhibition at 10 µM: > 75%

## CCNC(=O)Nc1nc2cc(-c3ccc(OCC)nc3)ccc2[nH]1 [Ia-163]
[1]
  MIC: < 10 µg/mL
[2]
  inhibition at 10 µM: > 75%

## CCNC(=O)Nc1nc2cc(-c3cccnc3)c(N3CCOCC3)cc2[nH]1 [Ia-164]
[1]
  MIC: > 40 µg/mL
[2]
  inhibition at 10 µM: > 75%

## CCNC(=O)Nc1nc2cc(-c3ccccc3O)ccc2[nH]1 [Ia-165]
[1]
  MIC: 10 to 40 µg/mL (≈ 33.7 to 135 µM)
[2]
  inhibition at 10 µM: > 75%

## CCNC(=O)Nc1nc2cc(-c3ccc(N4CCOCC4)nc3)ccc2[nH]1 [Ia-166]
[1]
  MIC: > 40 µg/mL
[2]
  inhibition at 10 µM: > 75%

## CCNC(=O)Nc1nc2cc(-c3cccnc3)cc(O)c2[nH]1 [Ia-167]
[1]
  MIC (minimal inhibitory concentration) activity level: C (provided an MIC of greater than 40 μg/mL)
[2]
  inhibition at 10 µM: > 75%

## CCNC(=O)Nc1nc2cc(-c3cccnc3)cc(OCc3ccccc3)c2[nH]1 [Ia-168]
[1]
  MIC: < 10 µg/mL
[2]
  inhibition at 10 µM: > 75%

## CCNC(=O)Nc1nc2cc(-n3cnc(C(=O)N4CCOCC4)c3)ccc2[nH]1 [Ia-170]
[1]
  MIC: > 40 µg/mL
[2]
  inhibition at 10 µM: > 75%

## CCNC(=O)Nc1nc2cc(-n3cnc(C(=O)NCc4cccnc4)c3)ccc2[nH]1 [Ia-171]
[1]
  MIC: 10 to 40 µg/mL (≈ 24.7 to 98.9 µM)
[2]
  inhibition at 10 µM: > 75%

## CCNC(=O)Nc1nc2cc(-n3cc(C(=O)NCC(C)C)cn3)ccc2[nH]1 [Ia-173]
[1]
  MIC: 10 to 40 µg/mL (≈ 27.1 to 108 µM)
[2]
  inhibition at 10 µM: > 75%

## CCNC(=O)Nc1nc2cc(-n3cc(C(=O)NCc4cccnc4)cn3)ccc2[nH]1 [Ia-174]
[1]
  MIC: > 40 µg/mL
[2]
  inhibition at 10 µM: > 75%

## CCNC(=O)Nc1nc2cc(-c3ccc(N4CCCCC4)nc3)ccc2[nH]1 [Ia-175]
[1]
  MIC: > 40 µg/mL
[2]
  inhibition at 10 µM: > 75%
